Reference: patent US20230392179A1 (SOOCHOW UNIVERSITY, priority 2021, published 2023)

System: Mycobacterium smegmatis containing plasmid PMV261-Kana^R-65S-RecA intein
Test: Intein splicing inhibitor screening system: growth (OD600) of Mycobacterium smegmatis carrying Kana^R-65S-RecA intein in kanamycin medium
Settings: 20 μM cisplatin, kanamycin 50 μg/mL plus hygromycin, 37° C., 100 h

## N.N.[Cl][Pt][Cl] [cisplatin]
  inhibition rate of growth of Mycobacterium smegmatis containing plasmid PMV261-Kana^R-65S-RecA intein: 62%
